From patent publication US20080132569A1, “Antifungal Compositions for Inhibiting Growth of Wood Decay Fungi and Use Thereof” (priority 2006, published 2008)
In brackets after ≈: the same amount, converted by molar mass. Like-named read-outs stand apart in the source and are kept apart here.

Assays:
[1] = Antifungal assay, mycelium growth on PDA containing the chemical; conditions: S. commune; for Antifungal index (%): Table 2
[2] = as above; conditions: T. versicolor
[3] = as above; conditions: L. betulina; for Antifungal index: Example 3, FIG. 2(A)
[4] = as above; conditions: L. sulphureus
[5] = Antifungal activity on paper (CNS 2690, TAPPI T487 cm-93); conditions: A. niger, 14 days
[6] = Antifungal assay, mycelium growth on PDA (fungi); conditions: soft rot, Cu tolerant, and brown rot fungi
[7] = Antifungal activity on paper (CNS 2690, TAPPI T487 cm-93); conditions: C. globosum, 14 days
[8] = Antifungal assay, mycelium growth on PDA containing the chemical; conditions: G. trabeum
[9] = Antifungal assay, mycelium growth on PDA (fungi)
[10] = Antifungal assay, mycelium growth on PDA containing the chemical; conditions: A. taxa; for Antifungal index (%): Table 2
[11] = Antifungal activity on paper (CNS 2690, TAPPI T487 cm-93); conditions: A. terreus, 14 days
[12] = Antifungal assay, mycelium growth on PDA containing the chemical; conditions: W. extensa; for Antifungal index (%): Table 2
[13] = Antifungal assay, mycelium growth on PDA (fungi); conditions: 100 μg/ml; W. extensa, P placenta, L. sulphureus, G. trabeum and F. pinicola
[14] = Antifungal assay, mycelium growth on PDA containing the chemical; conditions: F. pinicola; for Antifungal index (%): Table 2
[15] = as above; conditions: C. globosum; for Antifungal index (%): Table 2
[16] = as above; conditions: P. placenta; for Antifungal index (%): Table 2
[17] = Example 1, FIG. 1(A), read-out: IC50 (concentration that inhibited 50% of the mycelium growth)
[18] = 100 μg/cm^2 on filter paper, listed as octyl gallate
[19] = 400 μg/cm^2 on filter paper, listed as octyl gallate

CCCCCCCCOC(=O)c1cc(O)c(O)c(O)c1 [Octyl gallate, octyl gallate]
Antifungal index (%) ([1]; 25 μg/ml): 16%
Antifungal index (%) ([1]; 50 μg/ml): 40%
Antifungal index (%) ([1]; 100 μg/ml): 60%
Antifungal index (%) ([1]; 200 μg/ml): 83%
IC50 value ([1]; Table 3): 114 µg/mL (≈ 404 µM)
Antifungal index (%) ([2]; 25 μg/ml, Table 2): 37%
Antifungal index (%) ([2]; 50 μg/ml, Table 2): 50%
Antifungal index (%) ([2]; 100 μg/ml, Table 1): 69 ± 9.1%
Antifungal index (%) ([2]; 100 μg/ml, Table 2): 69%
Antifungal index (%) ([2]; 200 μg/ml, Table 2): 85%
IC50 [2, 17]: 160 µM
IC50 value ([2]; Table 3): 173 µg/mL (≈ 613 µM)
Antifungal index ([3]; 25 μg/ml): 16%
Antifungal index (%) ([3]; 25 μg/ml, Table 2): 16%
Antifungal index (%) ([3]; 50 μg/ml, Table 2): 28%
Antifungal index ([3]; 100 μg/ml): 42%
Antifungal index (%) ([3]; 100 μg/ml, Table 1): 43 ± 2.5%
Antifungal index (%) ([3]; 100 μg/ml, Table 2): 41%
Antifungal index (%) ([3]; 200 μg/ml, Table 2): 88%
IC50 [3, 17]: 470 µM
IC50 value ([3]; Table 3): 137.6 µg/mL (≈ 487 µM)
Antifungal index (%) ([4]; 50 μg/ml, Table 2): 85%
Antifungal index (%) ([4]; 100 μg/ml, Table 1): 100 ± 0%
Antifungal index (%) ([4]; 100 μg/ml, Table 2): 96%
Antifungal index (%) ([4]; 200 μg/ml, Table 2): 100%
IC50 [4, 17]: 40 µM
IC50 value ([4]; Table 3): 50.6 µg/mL (≈ 179 µM)
Percent inhibition ratio ([5]; 100 μg/cm^2 on filter paper): 72 ± 7.6%
Percent inhibition ratio [5, 18]: 72%
Percent inhibition ratio ([5]; 400 μg/cm^2 on filter paper): 99 ± 1.0%
Percent inhibition ratio [5, 19]: 99%
IC50 value [6]: less than 50 μg/ml
Percent inhibition ratio ([7]; 100 μg/cm^2 on filter paper): 100 ± 0%
Percent inhibition ratio [7, 18]: 100%
Percent inhibition ratio ([7]; 400 μg/cm^2 on filter paper): 100 ± 0%
Antifungal index ([8]; 25 μg/ml, Example 3, FIG. 2(B)): 30%
Antifungal index (%) ([8]; 50 μg/ml, Table 2): 49%
Antifungal index (%) ([8]; 100 μg/ml, Table 1): 85 ± 26.2%
Antifungal index (%) ([8]; 100 μg/ml, Table 2): 77%
Antifungal index (%) ([8]; 200 μg/ml, Table 2): 93%
IC50 [8, 17]: 240 µM
IC50 value ([8]; Table 3): 50.8 µg/mL (≈ 180 µM)
inhibition (antifungal index), span over three fungi ([9]; 100 μg/ml, L. betulina, T versicolor and S. commune): 41˜69%
IC50 value ([9]; white rot fungi): less than 200 μg/ml
Antifungal index (%) ([10]; 25 μg/ml): 73%
Antifungal index (%) ([10]; 50 μg/ml): 100%
Antifungal index (%) ([10]; 200 μg/ml): 100%
IC50 value ([10]; Table 3): <25 µg/mL
Percent inhibition ratio ([11]; 100 μg/cm^2 on filter paper): 51 ± 4.6%
Percent inhibition ratio [11, 18]: 51%
Percent inhibition ratio ([11]; 400 μg/cm^2 on filter paper): 94 ± 8.5%
Percent inhibition ratio [11, 19]: 94%
Antifungal index (%) ([12]; 25 μg/ml): 3%
Antifungal index (%) ([12]; 50 μg/ml): 50%
Antifungal index (%) ([12]; 100 μg/ml): 75%
Antifungal index (%) ([12]; 200 μg/ml): 64%
IC50 value ([12]; Table 3): 50 µg/mL (≈ 177 µM)
inhibition (antifungal index), span over five fungi [13]: 75˜96%
Antifungal index (%) ([14]; 25 μg/ml): 52%
Antifungal index (%) ([14]; 50 μg/ml): 78%
Antifungal index (%) ([14]; 100 μg/ml): 94%
Antifungal index (%) ([14]; 200 μg/ml): 100%
IC50 value ([14]; Table 3): <25 µg/mL
Antifungal index (%) ([15]; 25 μg/ml): 82%
Antifungal index (%) ([15]; 50 μg/ml): 100%
Antifungal index (%) ([15]; 200 μg/ml): 100%
IC50 value ([15]; Table 3): <25 µg/mL
Antifungal index (%) ([16]; 25 μg/ml): 58%
Antifungal index (%) ([16]; 50 μg/ml): 75%
Antifungal index (%) ([16]; 100 μg/ml): 82%
Antifungal index (%) ([16]; 200 μg/ml): 84%
IC50 value ([16]; Table 3): <25 µg/mL
